From patent publication US20070293484A1, “Thiophene Heteroaryl Amines” (SUGEN, INC., priority 2004, published 2007) come the findings set out here.

Several values for one entry are separate records, joined by “and”; a condition that tells them apart may be missing. Identical values can stand only once. Bounds are passed on as bounds.

One assay concerns the target T1, GST-Flk1 (Mus musculus, UniProt P35918).
T1 construct: GST-Flk1cd purified from sf9 recombinant baculovirus transformation (SUGEN, Inc.); host or cells: Sf9 insect cells (recombinant baculovirus)
As to the kind of experiment: GST-FLK-1 bioassay (ELISA, tyrosine kinase activity on poly(glu,tyr)). Format: biochemical. As to the method: The assays described herein are performed in an ELISA (Enzyme-Linked Immunosorbent Sandwich Assay) format (Voller, et al., 1980, “Enzyme-Linked Immunosorbent Assay,” Manual of Clinical Immunology, 2d ed., Rose and Friedman, Am. Soc. Of Microbiology, Washington, D.C., pp. 359-371). The general procedure is as follows: a compound is introduced to cells expressing the test kinase, either naturally or recombinantly, for a selected period of time after which, if the test kinase is a receptor, a ligand known to activate the receptor is added. The cells are lysed and the lysate is transferred to the wells of an ELISA plate previously coated with a specific antibody recognizing the substrate of the enzymatic phosphorylation reaction. Non-substrate components of the cell lysate are washed away and the amount of phosphorylation on the substrate is detected with an antibody specifically recognizing phosphotyrosine compared with control cells that were not contacted with a test compound.
This assay analyzes the tyrosine kinase activity of GST-Flk1 on poly(glu,tyr) peptides.
• 1. Corning 96-well ELISA plates (Corning Catalog No. 5805-96). • 2. poly(glu,tyr) 4:1, lyophilizate (Sigma Catalog #P0275). • 3. Preparation of poly(glu,tyr)(pEY) coated assay plates: Coat 2 ug/well of poly(glu,tyr)(pEY) in 100 μL PBS, hold at room temperature for 2 hours or at 4° C. overnight. Cover plates well to prevent evaporation. • 4. PBS Buffer: for 1 L, mix 0.2 g KH2PO4, 1.15 g Na2HPO4, 0.2 g KCl and 8 g NaCl in approx. 900 ml dH2O. When all reagents have dissolved, adjust the pH to 7.2 with HCl. Bring total volume to 1 L with dH2O. • 5. PBST Buffer: to 1 L of PBS Buffer, add 1.0 ml Tween-20. • 6. TBB—Blocking Buffer: for 1 L, mix 1.21 g TRIS, 8.77 g NaCl, 1 ml TWEEN-20 in approximately 900 ml dH2O. Adjust pH to 7.2 with HCl. Add 10 g BSA, stir to dissolve. Bring total volume to 1 L with dH2O. Filter to remove particulate matter. • 7. 1% BSA in PBS: To make a 1× working solution, add 10 g BSA to approx. 990 ml PBS buffer, stir to dissolve. Adjust total volume to 1 L with PBS buffer, filter to remove particulate matter. • 8. 50 mM Hepes pH 7.5. • 9. GST-Flk1cd purified from sf9 recombinant baculovirus transformation (SUGEN, Inc.). • 10. 4% DMSO in dH2O. • 11. 10 mMATP in dH2O. • 12. 40 mM MnCl2 • 13. Kinase Dilution Buffer (KDB): mix 10 ml Hepes (pH 7.5), 1 ml 5M NaCl, 40 μL 100 mM sodium orthovanadate and 0.4 ml of 5% BSA in dH2O with 88.56 ml dH2O. • 14. NUNC 96-well V bottom polypropylene plates, Applied Scientific Catalog #AS-72092 • 15. EDTA: mix 14.12 g ethylenediaminetetraacetic acid (EDTA) to approx. 70 ml dH2O. Add 10 N NaOH until EDTA dissolves. Adjust pH to 8.0. Adjust total volume to 100 ml with dH2O. • 16. 1^0 Antibody Dilution Buffer: mix 10 ml of 5% BSA in PBS buffer with 89.5 ml TBST. • 17. Anti-phosphotyrosine monoclonal antibody conjugated to horseradish peroxidase (PY99 HRP, Santa Cruz Biotech). • 18. 2,2′-Azinobis(3-ethylbenzthiazoline-6-sulfonic acid (ABTS, Moss, Cat. No. ABST). • 19. 10% SDS. Procedure: • 1. Coat Corning 96-well ELISA plates with 2 μg of polyEY peptide in sterile PBS as described in step 3 of Materials and Reagents. • 2. Remove unbound liquid from wells by inverting plate. Wash once with TBST. Pat the plate on a paper towel to remove excess liquid. • 3. Add 100 μl of 1% BSA in PBS to each well. Incubate, with shaking, for 1 hr. at room temperature. • 4. Repeat step 2. • 5. Soak wells with 50 mM HEPES (pH7.5) (150 μl/well). • 6. Dilute test compound with dH2O/4% DMSO to 4 times the desired final assay concentration in 96-well polypropylene plates. • 7. Add 25 μl diluted test compound to ELISA plate. In control wells, place 25 μl of dH2O/4% DMSO. • 8. Add 25 μl of 40 mM MnCl2 with 4×ATP (2 μM) to each well. • 9. Add 25 μl 0.5M EDTA to negative control wells. • 10. Dilute GST-Flk1 to 0.005 μg (5 ng)/well with KDB. • 11. Add 50 μl of diluted enzyme to each well. • 12. Incubate, with shaking, for 15 minutes at room temperature. • 13. […]

For a further assay, the target named is T2, PDGFR (Homo sapiens, UniProt P09619).
T2 construct: SUGEN, Inc; host or cells: NIH 3T3 cell lysate; receptor captured on plate with monoclonal anti-PDGFR antibody 28D4C10
As to the kind of experiment: PDGFR bioassay (ELISA, in vitro kinase activity). It is filed as biochemical. The conditions noted are these: PDGFR-β expressing NIH 3T3 cell lysate; read-out: IC50 (μM) PDGF-R.

T1 sequence (P35918 784-1345 limits assumed): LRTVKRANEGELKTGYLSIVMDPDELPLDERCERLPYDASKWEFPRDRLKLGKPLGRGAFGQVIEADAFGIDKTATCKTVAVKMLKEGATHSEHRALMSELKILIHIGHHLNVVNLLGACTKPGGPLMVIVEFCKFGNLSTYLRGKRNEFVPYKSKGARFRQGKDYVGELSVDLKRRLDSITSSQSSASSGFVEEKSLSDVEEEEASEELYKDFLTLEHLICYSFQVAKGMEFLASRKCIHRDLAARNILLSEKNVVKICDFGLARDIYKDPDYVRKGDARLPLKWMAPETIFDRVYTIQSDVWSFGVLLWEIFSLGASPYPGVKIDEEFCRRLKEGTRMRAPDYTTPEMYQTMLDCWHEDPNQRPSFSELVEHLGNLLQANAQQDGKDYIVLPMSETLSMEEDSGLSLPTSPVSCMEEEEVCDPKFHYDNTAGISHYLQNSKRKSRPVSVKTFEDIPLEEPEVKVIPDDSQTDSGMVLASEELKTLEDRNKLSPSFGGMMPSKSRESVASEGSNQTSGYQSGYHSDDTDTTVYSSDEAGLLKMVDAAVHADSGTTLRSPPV
T2 sequence (P09619 33-1106, species assumed): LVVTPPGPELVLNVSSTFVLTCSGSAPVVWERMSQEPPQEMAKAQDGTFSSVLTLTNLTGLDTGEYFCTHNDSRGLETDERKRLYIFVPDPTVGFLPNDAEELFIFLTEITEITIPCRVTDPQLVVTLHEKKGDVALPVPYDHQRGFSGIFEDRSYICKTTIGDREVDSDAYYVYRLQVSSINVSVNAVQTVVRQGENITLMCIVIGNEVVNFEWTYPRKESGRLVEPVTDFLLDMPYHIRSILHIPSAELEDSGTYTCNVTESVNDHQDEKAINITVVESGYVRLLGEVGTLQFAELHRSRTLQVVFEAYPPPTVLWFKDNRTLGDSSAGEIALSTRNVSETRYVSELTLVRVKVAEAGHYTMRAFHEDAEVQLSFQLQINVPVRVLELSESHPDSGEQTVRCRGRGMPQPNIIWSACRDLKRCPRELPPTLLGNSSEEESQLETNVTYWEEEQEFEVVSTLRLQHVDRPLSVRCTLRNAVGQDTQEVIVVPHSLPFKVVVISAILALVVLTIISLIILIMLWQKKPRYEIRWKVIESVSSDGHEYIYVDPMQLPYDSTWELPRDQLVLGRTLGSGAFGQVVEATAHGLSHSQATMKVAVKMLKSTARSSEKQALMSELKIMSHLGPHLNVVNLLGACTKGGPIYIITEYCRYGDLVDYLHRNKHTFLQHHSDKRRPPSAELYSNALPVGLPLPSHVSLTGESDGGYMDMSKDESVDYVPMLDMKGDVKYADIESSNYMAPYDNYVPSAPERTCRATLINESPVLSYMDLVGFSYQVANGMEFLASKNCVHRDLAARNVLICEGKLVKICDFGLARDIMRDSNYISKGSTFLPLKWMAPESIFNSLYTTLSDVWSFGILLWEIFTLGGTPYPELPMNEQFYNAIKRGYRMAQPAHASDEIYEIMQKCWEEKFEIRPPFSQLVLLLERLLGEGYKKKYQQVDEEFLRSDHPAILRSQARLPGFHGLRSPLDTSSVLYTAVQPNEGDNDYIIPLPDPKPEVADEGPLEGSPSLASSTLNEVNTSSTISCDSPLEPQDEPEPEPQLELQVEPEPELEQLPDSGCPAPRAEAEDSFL

`CN1CCN(CCNCC(=O)Nc2cccc(Nc3ncc(-c4ccsc4)cn3)c2)CC1` [Example 58, 2-[2-(4-methyl-piperazin-1-yl)-ethylamino]-N-[3-(5-thiophen-3-yl-pyrimidin-2-ylamino)-phenyl]-acetamide]: the IC50 (in general, the concentration that inhibits the measured activity by half) at GST-Flk1 was 2.5 µM and 4 µM; on PDGFR, 0.08 µM and 0.43 µM.
Consider `O=C(O)c1cccc(Nc2ncc(-c3cccs3)cn2)c1` [Example 17, 3-[(5-thien-2-ylpyrimidin-2-yl)amino]benzoic acid], for which the figures for the IC50 at GST-Flk1 and on PDGFR were greater than 20 µM and 15.2 µM, respectively.
The like results for `O=C(CNCCN1CCOCC1)Nc1cccc(Nc2ncc(-c3ccsc3)cn2)c1` [Example 56, 2-(2-morpholin-4-yl-ethylamino)-N-[3-(5-thiophen-3-yl-pyrimidin-2-ylamino)-phenyl]-acetamide] were, in that order, 2.4 µM and 0.09 µM.
Take `O=C(NCC(O)CN1CCOCC1)Nc1cccc(Nc2ncc(-c3ccsc3)cn2)c1` (centres unmarked) [Example 51, 1-(2-hydroxy-3-morpholin-4-yl-propyl)-3-[3-(5-thiophen-3-yl-pyrimidin-2-ylamino)-phenyl]-urea]: the IC50 on GST-Flk1 is 2 µM; on PDGFR, 0.12 µM.
For the compound `O=C(CN1CCC(O)CC1)Nc1ccc(Nc2ncc(-c3ccsc3)cn2)cc1` [Example 28, 2-(4-hydroxypiperidin-1-yl)-N-{4-[(5-thien-3-ylpyrimidin-2-yl)amino]phenyl}acetamide], the IC50 on GST-Flk1 came out at 4.9 µM; at PDGFR it was 0.57 µM.
For `O=C(NCCN1CCS(=O)(=O)CC1)Nc1cccc(Nc2ncc(-c3ccsc3)cn2)c1` [Example 52, 1-[2-(1,1-dioxo-1λ^6-thiomorpholin-4-yl)ethyl]-3-[3-(5-thiophen-3-yl-pyrimidin-2-ylamino)-phenyl]-urea], in that order: 1.6 µM and 0.36 µM.
As to `c1cc(Nc2ncc(-c3ccsc3)cn2)cc(N2CCOCC2)c1` [Example 39, N-(3-morpholin-4-ylphenyl)-5-thien-3-ylpyrimidin-2-amine], the concentration for half-maximal inhibition (IC50) was found to be 2 µM against GST-Flk1 and 0.15 µM at PDGFR.
